Patent US9221833B2, “Antiviral compounds” (GILEAD PHARMASSET LLC, priority 2011, dated 2015)
Where two headings read alike, the source gives them in different places.

Assays:
Assay type in all cases: cell-based, HCV
[1] = test system: genotype 4a ED43 strain NS5A gene; assay: Replicon assay, NS5A chimeric 1b Con1 replicon with 4a NS5A, transiently transfected Huh-Lunet cells
Description: Evaluation of cell-based anti-HCV activity: Antiviral potency (EC50) was determined using a Renilla luciferase (RLuc)-based HCV replicon reporter assay. […] To perform the assay for genotype 2a (with M31 present in NS5A) or 2b, NS5A chimeric genotype 2a JFH-1 replicons that encodes a RLuc-Neo reporter and either genotype 2a J6 strain NS5A gene or genotype 2b MD2b-1 strain NS5A gene (both with M31 present) respectively, were either transiently transfected (t) into Huh-Lunet cells or were established as stably replicating replicon cells (s) is provided. Either cells were dispensed into 384-well plates for EC50 assays. To perform the assay for genotype 3 and 4, NS5A chimeric genotype 1b Con1 replicons that encodes a Pi-RLuc reporter and either genotype 3a S52 strain NS5A gene or genotype 4a ED43 strain NS5A gene respectively, […], which were subsequently dispensed into 384-well plates. Compounds were dissolved in DMSO at a concentration of 10 mM and diluted in DMSO either manually or using an automated pipeting instrument. Serially 3-fold diluted compounds were either manually mixed with cell culture media and added to the seeded cells or directly added to the cells using an automated instrument. […] 72 hours later, cells were lysed and Renilla luciferase activity quantified as recommended by the manufacturer (Promega-Madison, Wis.). Non-linear regression was performed to calculate EC50 values.

[2] = test system: genotype 2a J6 strain NS5A gene (M31 present); assay: Replicon assay, NS5A chimeric 2a JFH-1 replicon with 2a J6 NS5A, transient (t) or stable (s), Huh-Lunet cells
Description: (§1) Evaluation of cell-based anti-HCV activity: Antiviral potency (EC50) was determined using a Renilla luciferase (RLuc)-based HCV replicon reporter assay. […] To perform the assay for genotype 2a (with M31 present in NS5A) or 2b, NS5A chimeric genotype 2a JFH-1 replicons that encodes a RLuc-Neo reporter and either genotype 2a J6 strain NS5A gene or genotype 2b MD2b-1 strain NS5A gene (both with M31 present) respectively, were either transiently transfected (t) into Huh-Lunet cells or were established as stably replicating replicon cells (s) is provided. Either cells were dispensed into 384-well plates for EC50 assays. To perform the assay for genotype 3 and 4, NS5A chimeric genotype 1b Con1 replicons that encodes a Pi-RLuc reporter and either genotype 3a S52 strain NS5A gene or genotype 4a ED43 strain NS5A gene respectively, were transiently transfected (t) into Huh-Lunet cells, which were subsequently dispensed into 384-well plates. Compounds were dissolved in DMSO at a concentration of 10 mM and diluted in DMSO either manually or using an automated pipeting instrument. Serially 3-fold diluted compounds were either manually mixed with cell culture media and added to the seeded cells or directly added to the cells using an automated instrument. […] 72 hours later, cells were lysed and Renilla luciferase activity quantified as recommended by the manufacturer (Promega-Madison, Wis.). Non-linear regression was performed to calculate EC50 values.

Q30R in genotype 1a NS5A = assay: Antiviral potency against resistance mutant, 1a Pi-Rluc replicon in Huh-7-derived cured-51 cells; details: genotype 1a Q30R resistance mutant, read-out: 1a Q30R
Description: as §1
To determine the antiviral potency (EC50) against resistance mutants, resistance mutations, including M28T, Q30R, Q30H, L31M, and Y93C in genotype 1a NS5A and Y93H in genotype 1b NS5A, were introduced individually into either 1a Pi-Rluc or 1b Pi-Rluc replicons by site directed mutagenesis. Replicon RNA of each resistant mutant was transiently transfected into Huh-7-derived cured-51 cells and antiviral potency was determined on these transfected cells as described above.

[3] = test system: genotype 2b MD2b-1 strain NS5A gene (M31 present); assay: microbe, parasite or virus in culture
Description: as §1

[4] = test system: genotype 2a JFH-1 replicon (L31 present in NS5A); assay: microbe, parasite or virus in culture; details: genotype 2a JFH replicon, read-out: 2a JFH
Description: as §1

[5] = test system: genotype 1b Con1 replicon; assay: microbe, parasite or virus in culture
Description: as §1

[6] = test system: genotype 3a S52 strain NS5A gene; assay: Replicon assay, NS5A chimeric 1b Con1 replicon with 3a NS5A, transiently transfected Huh-Lunet cells; details: genotype 3a, read-out: 3a
Description: as §1

[7] = genotype 4a, EC50 range class, transiently transfected cells (t), if unavailable stably replicating cells (s), read-out: 4a
[8] = stably replicating cells (s), read-out: 4a (s)
[9] = transiently transfected cells (t), read-out: 4a (t)
[10] = genotype 2a J6, EC50 range class, transiently transfected cells (t), if unavailable stably replicating cells (s), read-out: 2a J6
[11] = stably replicating cells (s), read-out: 2a J6 (s)
[12] = transiently transfected cells (t), read-out: 2a J6 (t)
[13] = genotype 2b, EC50 range class, transiently transfected cells (t), if unavailable stably replicating cells (s), read-out: 2b
[14] = stably replicating cells (s), read-out: 2b (s)
[15] = transiently transfected cells (t), read-out: 2b (t)
[16] = Hepatitis C virus, read-out: 1b (nM)

| Compound | EC50 [1, 7] [nM] | EC50 [1, 8] [nM] | EC50 [1, 9] [nM] | EC50 [2, 10] [nM] | EC50 [2, 11] [nM] | EC50 [2, 12] [nM] | EC50 (Q30R in genotype 1a NS5A; EC50 range class) [nM] | EC50 (Q30R in genotype 1a NS5A) [nM] | EC50 [3, 13] [nM] | EC50 [3, 14] [nM] | EC50 [3, 15] [nM] | EC50 ([4]; EC50 range class) [nM] | EC50 [4] [nM] | EC50 ([5]; read-out: 1b) [nM] | EC50 ([6]; EC50 range class) [nM] | EC50 [6] [nM] | EC50 [5, 16] [nM] |
| --- | --- | --- | --- | --- | --- | --- | --- | --- | --- | --- | --- | --- | --- | --- | --- | --- | --- |
| COC(=O)N[C@H](C(=O)N1CCC[C@H]1c1ncc(-c2ccc3c(c2)COc2cc4c(cc2-3)CCc2[nH]c([C@@H]3CCCN3C(=O)[C@@H](NC(=O)OC)C(C)C)nc2-4)[nH]1)C(C)C [Example ME] | < 1 | 0.029 | 0.016 | 1 to 4.99 | 16.1 | 3.43 | 1 to 44 | 2.51 | < 1 | 0.701 | 0.198 | < 1 | 0.012 | 0.049 | < 1 | 0.015 | – |
| COC[C@@H]1C[C@@H](c2nc3ccc4cc5c(cc4c3[nH]2)OCc2cc(-c3cnc([C@@H]4CCCN4C(=O)[C@@H](NC(=O)OC)C(C)C)[nH]3)ccc2-5)N(C(=O)[C@H](NC(=O)OC)c2ccccc2)C1 [Example MQ, methyl{(1R)-2-[(2S,4R)-2-(9-{2-[(2S)-1-{(2S)-2-[(methoxycarbonyl)amino]-3-methylbutanoyl}pyrrolidin-2-yl)-1H-imidazol-5-yl]-1,11-dihydroisochromeno[4′,3′:6,7]naphtho[1,2-d]imidazol-2-yl}-4-(methoxymethyl)pyrrolidin-1-yl]-2-oxo-phenylethyl}carbamate] | < 1 | – | – | < 1 | 0.095 | 0.017 | < 1 | 0.023 | < 1 | 0.023 | 0.009 | < 1 | 0.004 | 0.011 | < 1 | 0.016 | – |
| COC[C@H]1C[C@@H](c2nc3c([nH]2)-c2cc4c(cc2CC3)-c2ccc(-c3cnc([C@@H]5CCCN5C(=O)[C@@H](NC(=O)OC)C(C)C)[nH]3)cc2CO4)N(C(=O)[C@H](NC(=O)OC)c2ccccc2)C1 [Example MR, methyl{(1R)-2-[(2S,4S)-2-(9-{2-[(2S)-1-{(2S)-2-[(methoxycarbonyl)amino]-3-methylbutanoyl}pyrrolidin-2-yl)-1H-imidazol-5-yl]-1,11-dihydroisochromeno[4′,3′:6,7]-4,5-dihydro-naphtho[1,2-d]imidazol-2-yl}-(methoxymethyl)pyrrolidin-1-yl]-2-oxo-1-phenylethyl}carbamate] | < 1 | – | 0.045 | < 1 | 0.176 | 0.079 | < 1 | 0.128 | < 1 | 0.053 | 0.039 | < 1 | 0.017 | 0.041 | < 1 | 0.078 | – |
| COC[C@H]1C[C@@H](c2nc3ccc4cc5c(cc4c3[nH]2)OCc2cc(-c3ccc4nc([C@@H]6CCCN6C(=O)[C@@H](NC(=O)OC)C(C)C)[nH]c4c3)ccc2-5)N(C(=O)[C@H](NC(=O)OC)c2ccccc2)C1 [Example MS] | < 1 | 0.02 | 0.014 | > 5 | 15.6 | – | – | – | > 5 | 9.56 | – | < 1 | 0.005 | 0.008 | – | – | – |
| COC[C@H]1C[C@@H](c2ncc(-c3ccc4c(c3)COc3cc5c(ccc6nc([C@@H]7C[C@H]8C[C@H]8N7C(=O)[C@H](NC(=O)OC)c7ccccc7)[nH]c65)cc3-4)[nH]2)N(C(=O)[C@@H](NC(=O)OC)C(C)C)C1 [Example MV] | < 1 | 0.011 | – | < 1 | – | 0.047 | < 1 | 0.012 | < 1 | 0.041 | 0.034 | < 1 | 0.004 | 0.014 | < 1 | 0.011 | – |
| COC(=O)N[C@H](C(=O)N1CCC[C@H]1c1ncc(-c2ccc3c(c2)COc2cc4c(ccc5nc([C@@H]6C[C@H](C)CN6C(=O)[C@H](NC(=O)OC)c6ccccc6)[nH]c54)cc2-3)[nH]1)C(C)C [Example MY, Methyl {2-[2-{9-[2-(1-{2-[(methoxycarbonyl)amino]-3-methylbutanoyl}pyrrolidin-2-yl)-1H-imidazol-5-yl]-1,11-dihydroisochromeno[4′,3′:6,7]naphtho[1,2-d]imidazol-2-yl}-4-(methyl)pyrrolidin-1-yl]-2-oxo-1-phenylethyl}carbamate] | – | – | – | – | – | – | – | – | – | – | – | – | – | – | – | – | 0.015 |
| COC[C@H]1C[C@@H](c2nc3ccc4cc5c(cc4c3[nH]2)OCc2cc(-c3cnc([C@@H]4C[C@H](C)CN4C(=O)[C@H](NC(=O)OC)c4ccccc4)[nH]3)ccc2-5)N(C(=O)[C@@H](NC(=O)OC)C(C)C)C1 [Example PF, methyl {1-[2-{9-[2-(1-{[(methoxycarbonyl)amino](phenyl)acetyl}-4-methylpyrrolidin-2-yl)-1H-imidazol-5-yl]-1,11-dihydroisochromeno[4′,3′:6,7]naphtho[1,2-d]imidazol-2-yl}-4-(methoxymethyl)pyrrolidin-1-yl]-3-methyl-1-oxobutan-2-yl}carbamate] | – | – | – | – | – | – | – | – | – | – | – | – | – | – | – | – | 0.044 |
| Methyl {(2S)-1-[(2S,5S)-2-(5-{2-[(2S,4S)-1-{(2S)-2-[(methoxycarbonyl)amino]-3-methylbutanoyl}-4-methylpyrrolidin-2-yl]-1,11-dihydroisochromeno[4′,3′:6,7]naphtho[1,2-d]imidazol-9-yl}-1H-imidazol-2-yl)-4-methylpyrrolidin-1-yl]-3-methyl-1-oxobutan-2-yl}carbamate [Example ND] | < 1 | 0.044 | 0.031 | < 1 | 2.34 | 0.314 | < 1 | 0.057 | < 1 | 1.32 | 0.27 | < 1 | 0.014 | 0.024 | < 1 | 0.035 | – |
| dimethyl (2S,2′S)-1,1′-((2 S,2′S)-2,2′l-pyrrolidin-2-yl)-5H-naphtho[c,g]chromeno[8,9-d]imidazol-9-yl)-1H-imidazol-2-yl)pyrrolidin-1-yl))bis(3-methyl-1-oxobutane-2,1-diyl)dicarbamate [Example MC] | < 1 | 0.028 | 0.008 | 1 to 4.99 | 3.52 | 1.16 | < 1 | 0.99 | < 1 | 0.375 | 0.162 | < 1 | 0.004 | 0.017 | < 1 | 0.004 | – |
